Columns and labels:
[1] = system: human acute myeloma MOLM-13 cell line subcutaneous xenograft; assay: Inhibition of Molm-13 subcutaneous xenograft tumor in vivo; parameters: species or system NOD/SCID female mice; details: for Average tumor volume Day 0: baseline
Procedure: The purpose of this assay is to evaluate the pharmacodynamics of the compounds in the NOD/SCID female mice model of human acute myeloma MOLM-13 cell line subcutaneous xenograft.
MOLM-13 cells were cultured in RPMI-1640 medium containing 10% fetal bovine serum. The MOLM-13 cells were collected in the exponential growth phase, and resuspended in PBS to a suitable concentration for subcutaneous tumor inoculation in nude mice.
The assay mice were inoculated with 5×10^6 MOLM-13 cells resuspended in 0.1 ml of PBS (0.1 ml per mouse) subcutaneously on the right back. Tumor growth was regularly observed. When the tumor grew to an average volume of 98 mm^3, the mice were randomly divided into groups and administered according to tumor size and body weight of the mice.
After the start of administration, the body weight and tumor size of the mice were measured three times a week. The formula for calculating the tumor volume is: tumor volume (mm^3)=½×(a×b^2) (where a represents the long diameter and b represents the short diameter).

[2] = system: MV-4-11 cells; assay: Assay of inhibiting proliferation of MV-4-11 in vitro (CellTiter-Glo); type: cell-based; details: Homo sapiens, MV4-11, 72 h, 3 days
Procedure: IMDM medium, fetal bovine serum, and penicillin/streptomycin antibiotics were purchased from Promega (Madison, Wis.). The MV-4-11 cell line was purchased from the Cell Bank of the Chinese Academy of Sciences. Envision Multi-Label Analyzer (PerkinElmer).
MV-4-11 cells were seeded in a white 96-well plate with 80 μL of cell suspension per well containing 10,000 MV-4-11 cells. The cell plate was cultured overnight in a carbon dioxide incubator.
The compounds to be tested were 5-fold serially diluted with a pipette to obtain eight concentrations, i.e., from 2 mmol/L to 26 nmol/L. The assay was carried out in duplicate. 78 μL of medium was added to the intermediate plate, and then 2 μL per well of the serially diluted compounds were transferred to the intermediate plate according to the corresponding position. After mixing, an amount of 20 μL per well was transferred to the cell plate. The cell plate was cultured in a carbon dioxide incubator for 3 days.
25 μL per well of Promega CellTiter-Glo reagent was added to the cell plate and incubated at room temperature for 10 minutes to stabilize the luminescence signal. A PerkinElmer Envision multi-label analyzer was used for reading.
The original data was converted into an inhibition rate, and the IC50 value can be obtained by four-parameter curve fitting.

[3] = system: human biphenotypic B bone marrow mononuclear leukemia cell MV4-11 subcutaneous xenograft tumor; assay: Inhibition of MV4-11 subcutaneous xenograft tumor in vivo; parameters: species or system nude mice; details: for Average tumor volume Day 25 / Average tumor volume Day 35: then drug withdrawal; for Average tumor volume Day 0: baseline at start of dosing
Procedure: In this assay, the anti-tumor effect of the compounds was evaluated using a nude mice model of subcutaneous xenograft tumor of human biphenotypic B bone marrow mononuclear leukemia cell MV4-11.
Human biphenotypic B bone marrow mononuclear leukemia cell MV4-11 was cultured in vitro in suspension with a RPMI1640 medium supplemented with 10% fetal bovine serum, 100 U/mL penicillin and 100 μg/mL streptomycin in a 5% CO2 cell incubator at 37° C. Routine passaging was performed twice a week. Cells in the logarithmic growth phase were collected, counted and then used for inoculation.
10×10^6 MV4-11 cells were inoculated subcutaneously on the back of the right neck of each mouse, wherein the inoculation volume was 0.2 mL, and the cell suspension was PBS plus matrigel (volume ratio 1:1). The assay of efficacy in vivo was performed on the 13th day after the cell inoculation, at which time the average tumor volume reached 181 mm^3. The mice were randomly divided into groups with 6 mice in each group, and administration to the mice started.
The diameter of the tumor was measured with vernier calipers twice a week. The formula for calculating the tumor volume is: V=0.5a×b^2, where a and b represent the long and short diameters of the tumor, respectively.
After 14 days of administration, the administration was stopped, and the rebound of the tumor was observed.

[4] = 5 mg/kg oral once a day for 14 days
[5] = 20 mg/kg oral once a day for 14 days

| Structure (SMILES) | Average tumor volume Day 11 ([1]; 15 mg/kg oral once a day) [cubic millimeter] | Average tumor volume Day 15 ([1]; 15 mg/kg oral once a day) [cubic millimeter] | Average tumor volume Day 11 ([1]; 50 mg/kg oral once a day) [cubic millimeter] | Average tumor volume Day 15 ([1]; 50 mg/kg oral once a day) [cubic millimeter] | Average tumor volume Day 0 ([1]; 15 mg/kg oral once a day group) [cubic millimeter] | Average tumor volume Day 0 ([1]; 50 mg/kg oral once a day group) [cubic millimeter] | IC50 [2] [nM] | % Inhibition rate on day 14 ([3]; 5 mg/kg oral once a day) [%] | Average tumor volume Day 14 ([3]; 5 mg/kg oral once a day) [cubic millimeter] | Average tumor volume Day 25 [3, 4] [cubic millimeter] | Average tumor volume Day 35 [3, 4] [cubic millimeter] | Average tumor volume Day 0 ([3]; 5 mg/kg oral once a day group) [cubic millimeter] | % Inhibition rate on day 14 ([3]; 20 mg/kg oral once a day) [%] | Average tumor volume Day 14 ([3]; 20 mg/kg oral once a day) [cubic millimeter] | Average tumor volume Day 25 [3, 5] [cubic millimeter] | Average tumor volume Day 35 [3, 5] [cubic millimeter] | Average tumor volume Day 0 ([3]; 20 mg/kg oral once a day group) [cubic millimeter] |
| --- | --- | --- | --- | --- | --- | --- | --- | --- | --- | --- | --- | --- | --- | --- | --- | --- | --- |
| CCc1nc(C(N)=O)c(Nc2ccc(N3CCC4(CCN(C)CC4)CC3)c(C)c2)nc1NC1CCOCC1 [Compound of formula (I)] | 156.85 | 223.09 | 53.08 | 0 | 98.34 | 98.05 | – | – | – | – | – | – | – | – | – | – | – |
| CCc1nc(C(N)=O)c(Nc2ccc(N3CCC(N4CCN(C)CC4)CC3)c(OC)c2)nc1NC1CCOCC1 [Compound B] | – | – | – | – | – | – | 4.65 | 118 | 41 | 320 | 1279 | 181 | – | – | – | – | – |
| CCc1nc(C(N)=O)c(Nc2ccc(N3CCC4(CCN(C)CC4)CC3)c(OC)c2)nc1NC1CCOCC1 [Compound A] | – | – | – | – | – | – | 5.4 | – | – | – | – | – | 118 | 39 | 258 | 988 | 181 |

Reference: US11691974B2, “3,9-diazaspiro[5,5]undecane compound as FLT3 and AXL inhibitors” (MEDSHINE DISCOVERY INC., priority 2018, dated 2023)
